In paper PMC7876106 (Scientific Reports, 2021):
Blank lines part the entries; values can stand above or below the compound they belong to.

Tests used:
TERRA in LOX cells = experiment: TERRA levels by RNA dot blot and Northern blot in LOX cells; format: cell-based, human
[1] = test system: TERRA (5'-fluorescein) (RNA, G4) UUAGGGUUAGGGUUAGGGUUAGGG; experiment: fluorescence polarization; conditions: 20 mM HEPES pH 7.5, room temperature; for binding: 150 mM salt (KCl, NaCl or LiCl; which not stated), tRNA competitor, dilutions from 50 μM compound
G4 TeloDNA = experiment: FP assay, compound binding to 5′ fluorescein-labeled TeloDNA
Experimental: (§1) All the nucleic acids, peptides and chemicals were dissolved in buffer containing 20 mM HEPES pH7.5, 150 mM salt (KCl, NaCl, LiCl) at the stock concentration of 1 mM. For peptide and nucleic acid interactions, 25μL of each nucleic acids with a sequential twofold dilutions starting from 50 μM was added into each well of 96-well plate followed by adding 25μL of 10 nM FITC labeled TRF2 peptide. For compounds and nucleic acid interactions, 20μL of each compounds with a sequential twofold dilutions starting from 50 μM were added into each well of 96-well plate followed by adding 5μL of 20 ng/mL tRNA and 25μL of 10 nM FAM labeled nucleic acids. For inhibition assay, 5μL FITC labeled TRF2 GAR peptide (10 nM final concentration) and 10 μL oligos (5 μM final concentration) were mixed, followed by adding 5μL of each compound with a sequential twofold dilutions starting from 50 μM into each well of 384-well plate. All components were mixed thoroughly, and the plate was incubated at room temperature for 1 h before placing in an Envision Plate Reader for reading at 495/520 nm. All data curves were fitted using Prism 8.0.

[2] = test system: TeloDNA (5'-fluorescein) (DNA, G4) TTAGGGTTAGGGTTAGGGTTAGGG; experiment: fluorescence polarization; conditions: 20 mM HEPES pH 7.5, room temperature; for binding: 150 mM salt (KCl, NaCl or LiCl; which not stated), tRNA competitor, dilutions from 50 μM compound
TERRA [3] = experiment: FP assay, compound binding to 5′ fluorescein-labeled TERRA
Experimental: as §1

[4] = test system: TeloDNA (unlabelled) (DNA, G4) TTAGGGTTAGGGTTAGGGTTAGGG; experiment: fluorescence polarization, displacement of TRF2 GAR peptide; conditions: 150 mM salt (KCl, NaCl or LiCl; which not stated); 20 mM HEPES pH 7.5, room temperature; FITC-TRF2 GAR peptide 10 nM; 5 μM oligo; dilutions from 50 μM compound
EBNA1 G4 RNA = experiment: FP assay, compound binding to EBNA1 G4 RNA
Experimental: as §1

TeloDNA and TRF2 complex = experiment: FP inhibition assay, TRF2 GAR binding to TeloDNA
Experimental: as §1

[5] = test system: TERRA (unlabelled) (RNA, G4) UUAGGGUUAGGGUUAGGGUUAGGG; experiment: fluorescence polarization, displacement of TRF2 GAR peptide; conditions: 150 mM salt (KCl, NaCl or LiCl; which not stated); 20 mM HEPES pH 7.5, room temperature; FITC-TRF2 GAR peptide 10 nM; 5 μM oligo; dilutions from 50 μM compound
TERRA [6] = experiment: CD spectroscopy of TERRA mixed with compound; conditions: 1:1 molar ratio, 150 mM KCl buffer
Experimental: All nucleic acids were dissolved in buffer containing 20 mM HEPES pH7.5, 150 mM salt (KCl or LiCl), 20% PEG8000 at the concentration of 10 μM for experiments. A J-815 spectrometer equipped with a PFD-425S Peltier cell holder was used to measure CD spectra at 4 °C between 200 and 340 nm to determine the secondary structure content of various oligo constructs. The molar ellipticity was calculated and the plot was made using Excel.

TERRA and TRF2 complex = experiment: FP inhibition assay, TRF2 GAR binding to TERRA; conditions: FP
Experimental: as §1

[7] = test system: TRF2 binding to telomere DNA; experiment: DNA ChIP assay of TRF2 binding to telomere DNA in LOX cells; format: cell-based, human; conditions: 2 μM, 2 days
Experimental: The lysates were sonicated, cleared by centrifugation, and supernatants were diluted 10 fold into IP Buffer (0.01% SDS, 1.1% Triton X-100, 1.2mM EDTA, 16.7mM Tris pH 8.1, 167mM NaCl, protease inhibitors cocktail, 50U/ml SUPERase•in) for IP reaction with rabbit IgG (Santa Cruz Biotechnology) or rabbit polyclonal anti-TRF2 (Pocono Rabbit Farm) at 4 ° C overnight. Each immune complex was collected by Dynal A beads (Invitrogen), washed five times (1 ml wash, 10 mins each) in ChIP related wash buffer at 4 ° C, eluted by addition of 200µl Elution buffer (10mM Tris, pH 8.0, 5mM EDTA, 1% SDS, 50U/ml SUPERase.In) at 70 °C for 20 mins, and the elutes were placed at 70 °C for 2 hrs to reverse cross-linking. […]
DNA ChIP assays was performed as described previously 3 with minor modifications. Briefly, 1 x 10^7 LOX cells treated with indicated chemicals (2 µM) for 48 hrs were subject to ChIP analysis and immunoprecipitated DNA was assayed by DNA dot-blot using 32P-labeled (TTAGGG)4 or Alu probe. […]

LOX cells = experiment: TIF assay (IF FISH, γH2AX or 53BP1 with telomere DNA) in LOX cells; format: cell-based, human; conditions: 2 μM, 3 days
Experimental: Mei et al, 2020 TERRA Requires TRF2 GAR Domain […]
(§2) Indirect immunofluorescence (IF) combined with fluorescence in situ hybridization (FISH) analysis for telomere dysfunction was performed as described 4 with some modifications. Briefly, cells grown on coverslips were fixed for 15 min in 2% paraformaldehyde/1x PBS at RT, followed by permeabilization for 10 min in 1x PBS/0.5% Triton X-100 at RT. After washing with 1x PBS, cells were incubated for 60 min in blocking solution (0.5% BSA, 0.2% fish gelatin, 0.1% Triton X-100, 1 mM EDTA in 1x PBS) before immuno-staining. Primary antibodies were prepared in blocking solution at following dilutions: anti-53BP1 (1:500, IHC-00001; Bethyl Laboratories) and γH2AX (1:2,000, A300-081A; Bethyl Laboratories). After IF, cells were fixed in 4% paraformaldehyde in 1x PBS for 10 min, washed in 1x PBS, dehydrated in ethanol series (70%, 95%, 100%), and air-dried. Coverslips were denatured for 5 min at 80-85° C in hybridization mix [70% formamide, 10 mM Tris-HCl, pH 7.2, and 0.5% blocking solution (Roche)] containing telomeric PNA-Cy3-(CCCTAA)3 probe, and hybridization was continued for 2 hrs at room temperature in the dark moisturized chambers. Coverslips were washed twice for 15 min each with 70% formamide, 10 mM Tris-HCl (pH 7.2), and 0.1% BSA, and followed by three washes for 5 min each with 0.15 M NaCl, 0.1 M Tris-HCl (pH 7.2), and 0.08% Tween-20. Nuclei were counterstained with 0.1 µg/ml DAPI in blocking solution and coverslips mounted with VectorShield (Vector Laboratories). RNA FISH was performed as previously described 1.
Images were captured with a 100x lens on a Nikon E600 Upright microscope (Nikon […]
Instruments, Inc., Melville, NY) with ImagePro Plus software (Media Cybernetics, Silver Spring, MD) for image processing. Cells with > 5 53BP1/γH2AX foci co-localizing with telomere DNA foci were scored as positive for TIF. The quantification was generated from at least three independent Immuno-FISH experiments. […]
0.1 μg/mL DAPI in 1x PBS and slides were mounted with VectorShield (Vector Laboratories).
Images were taken with a 100x lens on a Nikon E600 Upright microscope (Nikon Instruments) using ImagePro Plus software (Media Cybernetics) for image processing. Statistical analysis was performed using two-tailed Student t Test.

[8] = test system: TeloDNA antisense (5'-fluorescein) (DNA, single strand) CCCTAACCCTAACCCTAACCCTAA; experiment: fluorescence polarization; conditions: 150 mM salt (KCl, NaCl or LiCl; which not stated); 20 mM HEPES pH 7.5, room temperature, tRNA competitor; dilutions from 50 μM compound
[9] = test system: TERRA antisense (5'-fluorescein) (RNA, single strand) CCCUAACCCUAACCCUAACCCUAA; experiment: fluorescence polarization; conditions: 150 mM salt (KCl, NaCl or LiCl; which not stated); 20 mM HEPES pH 7.5, room temperature, tRNA competitor; dilutions from 50 μM compound
antisense TeloDNA = experiment: FP assay, FITC labeled TRF2 peptide with antisense TeloDNA; format: binding; conditions: 10 nM FITC peptide
Experimental: as §1

TeloDNA = experiment: FP assay, FITC labeled TRF2 peptide with TeloDNA; format: binding; conditions: 10 nM FITC peptide, read-out: EC50 (affinity), peptide binding to TeloDNA
Experimental: as §1

antisense TERRA = experiment: FP assay, FITC labeled TRF2 peptide with antisense TERRA; format: binding; conditions: 10 nM FITC peptide
Experimental: as §1

TERRA [10] = experiment: FP assay, FITC labeled TRF2 peptide with TERRA; format: binding; conditions: 10 nM FITC peptide, read-out: EC50 (affinity), peptide binding to TERRA
Experimental: as §1

[11] = test system: telomere repeat DNA in LOX cells; experiment: Telomere length analysis (PFGE, Southern blot) of LOX cells; format: cell-based, human; conditions: TLA
Experimental: Genomic DNA was isolated from cells using a genomic DNA purification kit (Promega) and digested with AluI and MboI. Digested genomic DNA was purified by phenol/choloroform extraction and quantified using a Qubit 4 Fluorometer (Thermal Scientific). Equal amounts of digested DNA (5 μg) were separated by pulse-field gel electrophoresis (PFGE) performed with a 1% agarose gel at 6V/cm, switch times from 1 to 12s, 15 °C for 12h using CHEF-DRIII system (Bio-Rad). The DNA was transferred to GeneScreen Plus blotting membranes (Perkin-Elmer) and analyzed by Southern blot. The blots were hybridized with a 32P-labeled telomere repeat or […]
Alu probe at 42 °C overnight, then washed twice for 5 min each with 0.2 M wash buffer (0.2 M Na2HPO4 pH 7.2, 1 mM EDTA, and 2% SDS) at room temperature and once for 10 min with 0.1 M wash buffer at 42°C. Relative telomere-repeat signals were determined by Typhoon 9410 Imager and ImageQuant TL software (GE Healthcare). Signal intensity represents the percentage decrease of average telomere signals relative to dox (-) or PP control. […]
as §2, with “100,” for “Indirect immunofluorescence (IF) combined with fluorescence in situ hybridization (FISH) analysis for telomere dysfunction was performed as described 4 with some modifications. Briefly, cells grown on coverslips were fixed for 15 min in 2% paraformaldehyde/1x PBS at RT, followed by permeabilization for 10 min in 1x PBS/0.5% Triton X-100 at RT. After washing with 1x PBS, cells were incubated for 60 min in blocking solution (0.5% BSA, 0.2% fish gelatin, 0.1% Triton X-100,”
Images were captured with a 100x lens on a Nikon E600 Upright microscope (Nikon

[12] = 150 mM KCl, NaCl or LiCl (salt not specified), 20 mM HEPES, tRNA competitor added, 10 nM probe, apparent
[13] = 10 nM fluorescein-labeled probe, 3 independent experiments

Compound: C[C@H]1c2cccc(O)c2C(=O)C2=C(O)[C@]3(O)C(=O)C(C(N)=O)=C(O)[C@@H](N(C)C)[C@@H]3[C@@H](O)[C@@H]21 [Dox, doxycycline]
- effect of Dox treatment on TERRA (TERRA in LOX cells; doxycycline 1 µg/ml, 2 days, RNA dot blot): no effect on TERRA

Compound: C=CC1=C(C)c2cc3[nH]c(cc4nc(cc5[nH]c(cc1n2)c(C)c5CCC(=O)O)C(CCC(=O)O)=C4C)c(C)c3C=C [PP, protoporphyrin IX]
- binding [4]: no
- binding [1]: no
- accumulation of TERRA as a shorter form (TERRA in LOX cells; 2 μM, 3 days, Northern blot): not observed
- binding to EBNA1 G4 RNA (EBNA1 G4 RNA): did not display any binding
- binding activity for G4 TeloDNA (G4 TeloDNA): no binding activity
- IC50 for TRF2 GAR-TeloDNA (TeloDNA and TRF2 complex): no measurable IC50
- binding [2]: no
- binding [5]: no
- alteration of CD spectrum of TERRA at major peak (~260 nm) (TERRA [6]): not BRACO-19 or PP altered the CD spectrum
- IC50 for TRF2 GAR-TERRA (TERRA and TRF2 complex): no measurable IC50
- effect on TRF2 binding to telomere DNA [7]: Neither NMM, PP, nor BRACO-19 had any significant effect
- binding to TERRA (TERRA [3]): no measurable affinity
- level of γH2AX or 53BP1 associated telomere dysfunction-induced foci (TIFs) (LOX cells): equivalent to background
- binding [8]: no
- binding [9]: no

Compound: RAAGRRASRSSGRARRGRHEPGLGGPAERGAGEAR [TRF2 GAR, 35-residue peptide containing the GAR domain of TRF2]
- peptide binding to antisense TeloDNA (antisense TeloDNA): Neither TRF2 GAR nor the Ala mutant showed any detectable binding
- EC50 (TeloDNA): 8900 nM
- peptide binding to antisense TERRA (antisense TERRA): Neither TRF2 GAR nor the Ala mutant showed any detectable binding
- EC50 (TERRA [10]): 2700 nM

Compound: C[n+]1cc(NC(=O)c2ccc3ccc4ccc(C(=O)Nc5cc6ccccc6[n+](C)c5)nc4c3n2)cc2ccccc21 [Phen-DC3]
- binding [1]: no
- binding activity for G4 TeloDNA (G4 TeloDNA): only PDS bound
- binding [2]: no
- binding to TERRA (TERRA [3]): only PDS bound

Second part, led by results:

- binding [1]: no
- binding activity for G4 TeloDNA (G4 TeloDNA): only PDS bound
- binding [2]: no
- binding to TERRA (TERRA [3]): only PDS bound
Compound: COS(=O)(=O)[O-].Cc1cc2c3c([n+](C)c4ccc(F)cc4c3c1)-c1cc(F)ccc1N2C [RHPS4, acridinium methosulfate]

- EC50 [1, 12]: 660 nM
- EC50 (EBNA1 G4 RNA): 199 nM
- binding to EBNA1 G4 RNA (EBNA1 G4 RNA): high binding affinity
- EC50 (G4 TeloDNA; [13]): 50 nM
- EC50 [2, 12]: 50 nM
- EC50 (TERRA [3]; [13]): 660 nM
Compound: NCCOc1cc(C(=O)Nc2cc(OCCN)c3ccccc3n2)nc(C(=O)Nc2cc(OCCN)c3ccccc3n2)c1 [PDS, pyridostatin]
- total TERRA levels relative to PP control (TERRA in LOX cells; 2 μM, 3 days, RNA dot blot and Northern blot): also reduced TERRA levels
- telomere repeat DNA signals [11]: to a lesser extent
